Results taken from ChEMBL document CHEMBL3880382, “TRH-like peptide derivatives as inhibitors of the TRH-degrading ectoenzyme” (2010).
The source made the active and inactive calls. No cut-off for these calls is given here. Non-standard residues stand in square brackets, D forms with d. Residues, ends and D or L forms follow the SMILES beside them. *: point of attachment. hPhe = N[C@@H](CCc1ccccc1)C(=O)O; 2Thi = N[C@@H](Cc1cccs1)C(=O)O; pGlu = O=C1CC[C@@H](C(=O)O)N1; Phg = N[C@H](C(=O)O)c1ccccc1; Pip = O=C(O)[C@@H]1CCCCN1; Nva = CCC[C@H](N)C(=O)O; NHBn = c1ccc(CN*)cc1

Assays:
[1] = biological target: Thyrotropin releasing hormone degrading enzyme (Sus scrofa, UniProt A0A287AP33); assay: Inhibition of pig brain TRH-DE using Glp-His-ProAMC as substrate by DPP-4-based continuous fluorometric method
[2] = biological target: T1, Thyrotropin releasing hormone degrading enzyme (Sus scrofa) (UniProt A0A287AP33); assay: Substrate activity at pig brain TRH-DE assessed as retention time at 1 mM incubated for 18 hrs by HPLC analysis
[3] = biological target: T1, Thyrotropin releasing hormone degrading enzyme (Sus scrofa); assay: Substrate activity at pig brain TRH-DE assessed as Vmax to Km ratio
[4] = biological target: T1, Thyrotropin releasing hormone degrading enzyme (Sus scrofa); assay: Substrate activity at pig brain TRH-DE assessed as rate of hydrolysis at 1 mM incubated for 18 hrs by HPLC analysis
[5] = biological target: T1, Thyrotropin releasing hormone degrading enzyme (Sus scrofa); assay: Inhibition of pig brain TRH-DE at 1 mM using Glp-His-ProAMC as substrate by DPP-4-based continuous fluorometric method
[6] = biological target: T1, Thyrotropin releasing hormone degrading enzyme (Sus scrofa); assay: Reversible inhibition of pig brain TRH-DE using Glp-His-ProAMC as substrate at 400 uM preincubated for 75 mins by DPP-4-based continuous fluorometric method

T1 sequence (A0A287AP33 as listed by the source): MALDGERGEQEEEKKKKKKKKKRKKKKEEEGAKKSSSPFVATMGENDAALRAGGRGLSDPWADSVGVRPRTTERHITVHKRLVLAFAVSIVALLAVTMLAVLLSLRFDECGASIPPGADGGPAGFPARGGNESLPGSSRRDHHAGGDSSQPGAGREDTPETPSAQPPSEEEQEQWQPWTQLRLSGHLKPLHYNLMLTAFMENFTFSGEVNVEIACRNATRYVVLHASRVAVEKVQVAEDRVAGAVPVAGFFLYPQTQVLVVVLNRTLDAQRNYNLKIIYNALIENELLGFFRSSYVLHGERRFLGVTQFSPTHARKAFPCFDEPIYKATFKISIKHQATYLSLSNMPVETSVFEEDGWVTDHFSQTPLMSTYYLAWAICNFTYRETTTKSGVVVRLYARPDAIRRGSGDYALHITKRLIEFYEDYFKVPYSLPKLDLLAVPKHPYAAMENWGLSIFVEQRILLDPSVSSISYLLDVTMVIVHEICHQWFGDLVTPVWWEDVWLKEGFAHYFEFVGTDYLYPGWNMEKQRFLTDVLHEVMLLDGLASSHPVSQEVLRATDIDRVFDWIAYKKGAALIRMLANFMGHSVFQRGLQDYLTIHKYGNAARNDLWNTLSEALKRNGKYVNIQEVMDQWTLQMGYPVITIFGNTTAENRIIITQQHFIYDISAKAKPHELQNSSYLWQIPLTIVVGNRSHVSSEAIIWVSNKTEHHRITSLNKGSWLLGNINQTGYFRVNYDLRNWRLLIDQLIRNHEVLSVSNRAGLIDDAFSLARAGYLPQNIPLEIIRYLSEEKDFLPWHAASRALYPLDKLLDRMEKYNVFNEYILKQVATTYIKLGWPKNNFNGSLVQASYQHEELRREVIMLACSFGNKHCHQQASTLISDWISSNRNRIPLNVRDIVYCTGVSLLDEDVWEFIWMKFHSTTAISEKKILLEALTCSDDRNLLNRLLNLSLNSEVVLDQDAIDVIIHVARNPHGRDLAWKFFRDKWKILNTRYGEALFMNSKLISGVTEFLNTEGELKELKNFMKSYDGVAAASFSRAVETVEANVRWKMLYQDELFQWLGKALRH
Thyrotropin releasing hormone degrading enzyme, sequence (A0A287AP33 whole entry): as the sequence (A0A287AP33 as listed by the source) above

## NC(=O)C[C@H](NC(=O)[C@@H]1CCC(=O)N1)C(=O)N1CCC[C@H]1C(=O)NC(=O)C1CCCc2ccccc21 (stereo not given in full)
[1]
  Ki: 22.4 µM
[2]
  Retention time: 18.4 min

## NC(=O)C[C@H](NC(=O)[C@@H]1CCC(=O)N1)C(=O)N1CCC[C@H]1C(=O)Nc1ccccc1CO
[1]
  Ki: 20.6 µM
[2]
  Retention time: 11.9 min

## COc1ccc(NC(=O)[C@@H]2CCCN2C(=O)[C@H](CC(N)=O)NC(=O)[C@@H]2CCC(=O)N2)cc1
[2]
  Retention time: 15 min

## COc1cccc(NC(=O)[C@@H]2CCCN2C(=O)[C@H](CC(N)=O)NC(=O)[C@@H]2CCC(=O)N2)c1
[2]
  Retention time: 15.9 min

## COc1ccccc1NC(=O)[C@@H]1CCCN1C(=O)[C@H](CC(N)=O)NC(=O)[C@@H]1CCC(=O)N1
[2]
  Retention time: 15.4 min

## Cc1cc(=O)oc2cc(NC(=O)[C@@H]3CCCN3C(=O)[C@H](Cc3cnc[nH]3)NC(=O)[C@@H]3CCC(=O)N3)ccc12
[3]
  Vmax/Km: 0.04 U/mg/µM

## NC(=O)[C@@H]1CCCN1C(=O)[C@H](Cc1c[nH]cn1)NC(=O)[C@@H]1CCC(=O)N1
[4]
  Activity: 2.54 U/mg
[3]
  Vmax/Km: 0.08 U/mg/µM

## O=C1CC[C@@H](C(=O)N[C@@H](Cc2cnc[nH]2)C(=O)N2CCC[C@H]2C(=O)O)N1
[4]
  Activity: 3.38 U/mg
[3]
  Vmax/Km: 0.01 U/mg/µM

## C[C@H](NC(=O)[C@@H]1CCC(=O)N1)C(=O)N1CCC[C@H]1C(N)=O ([pGlu]-Ala-Pro-NH2)
[4]
  Activity: 0.02 U/mg

## N=C(N)NCCC[C@H](NC(=O)[C@@H]1CCC(=O)N1)C(=O)N1CCC[C@H]1C(N)=O ([pGlu]-Arg-Pro-NH2)
[4]
  Activity: 0.41 U/mg

## NC(=O)C[C@H](NC(=O)[C@@H]1CCC(=O)N1)C(=O)N1CCC[C@H]1C(=O)NCc1ccccc1 ([pGlu]-Asn-Pro-NHBn)
[2]
  Retention time: 14.3 min

## NC(=O)[C@@H]1CCCN1C(=O)[C@H](CC(=O)O)NC(=O)[C@@H]1CCC(=O)N1 ([pGlu]-Asp-Pro-NH2)
[5]
  inhibition: 1%

## NC(=O)CC[C@H](NC(=O)[C@@H]1CCC(=O)N1)C(=O)N1CCC[C@H]1C(N)=O ([pGlu]-Gln-Pro-NH2)
[6]
  inhibition: Active
[5]
  inhibition: 83%

## NC(=O)[C@@H]1CCCN1C(=O)[C@H](CCC(=O)O)NC(=O)[C@@H]1CCC(=O)N1 ([pGlu]-Glu-Pro-NH2)
[5]
  inhibition: 17%

## NC(=O)[C@@H]1CCCN1C(=O)CNC(=O)[C@@H]1CCC(=O)N1 ([pGlu]-Gly-Pro-NH2)
[5]
  inhibition: 8%

## CC[C@H](C)[C@H](NC(=O)[C@@H]1CCC(=O)N1)C(=O)N1CCC[C@H]1C(N)=O ([pGlu]-Ile-Pro-NH2)
[4]
  Activity: 0.06 U/mg

## CC(C)C[C@H](NC(=O)[C@@H]1CCC(=O)N1)C(=O)N1CCC[C@H]1C(N)=O ([pGlu]-Leu-Pro-NH2)
[4]
  Activity: 0.14 U/mg

## NCCCC[C@H](NC(=O)[C@@H]1CCC(=O)N1)C(=O)N1CCC[C@H]1C(N)=O ([pGlu]-Lys-Pro-NH2)
[4]
  Activity: 0.46 U/mg

## CSCC[C@H](NC(=O)[C@@H]1CCC(=O)N1)C(=O)N1CCC[C@H]1C(N)=O ([pGlu]-Met-Pro-NH2)
[4]
  Activity: 0.21 U/mg

## NC(=O)[C@@H]1CCCN1C(=O)[C@H](Cc1ccccc1)NC(=O)[C@@H]1CCC(=O)N1 ([pGlu]-Phe-Pro-NH2)
[4]
  Activity: 1.56 U/mg
[3]
  Vmax/Km: 0.03 U/mg/µM

## NC(=O)[C@@H]1CCCN1C(=O)[C@@H]1CCCN1C(=O)[C@@H]1CCC(=O)N1 ([pGlu]-Pro-Pro-NH2)
[5]
  inhibition: 3%

## NC(=O)[C@@H]1CCCN1C(=O)[C@H](CO)NC(=O)[C@@H]1CCC(=O)N1 ([pGlu]-Ser-Pro-NH2)
[4]
  Activity: 0.05 U/mg

## C[C@@H](O)[C@H](NC(=O)[C@@H]1CCC(=O)N1)C(=O)N1CCC[C@H]1C(N)=O ([pGlu]-Thr-Pro-NH2)
[4]
  Activity: 0.14 U/mg

## NC(=O)[C@@H]1CCCN1C(=O)[C@H](Cc1c[nH]c2ccccc12)NC(=O)[C@@H]1CCC(=O)N1 ([pGlu]-Trp-Pro-NH2)
[5]
  inhibition: 71%

## NC(=O)[C@@H]1CCCN1C(=O)[C@H](Cc1ccc(O)cc1)NC(=O)[C@@H]1CCC(=O)N1 ([pGlu]-Tyr-Pro-NH2)
[4]
  Activity: 0.66 U/mg
[3]
  Vmax/Km: 0.05 U/mg/µM

## CC(C)[C@H](NC(=O)[C@@H]1CCC(=O)N1)C(=O)N1CCC[C@H]1C(N)=O ([pGlu]-Val-Pro-NH2)
[4]
  Activity: 0.05 U/mg

## NC(=O)[C@@H]1CCCN1C(=O)[C@H](Cc1cccs1)NC(=O)[C@@H]1CCC(=O)N1 ([pGlu]-[2Thi]-Pro-NH2)
[4]
  Activity: 2.12 U/mg
[3]
  Vmax/Km: 0.06 U/mg/µM

## CCC[C@H](NC(=O)[C@@H]1CCC(=O)N1)C(=O)N1CCC[C@H]1C(N)=O ([pGlu]-[Nva]-Pro-NH2)
[4]
  Activity: 0.04 U/mg

## NC(=O)[C@@H]1CCCN1C(=O)[C@@H](NC(=O)[C@@H]1CCC(=O)N1)c1ccccc1 ([pGlu]-[Phg]-Pro-NH2)
[5]
  inhibition: 57%

## NC(=O)[C@@H]1CCCN1C(=O)[C@@H]1CCCCN1C(=O)[C@@H]1CCC(=O)N1 ([pGlu]-[Pip]-Pro-NH2)
[5]
  inhibition: 40%

## NC(=O)C[C@@H](NC(=O)[C@@H]1CCC(=O)N1)C(=O)N1CCC[C@H]1C(N)=O ([pGlu]-[dN]-Pro-NH2)
[5]
  inhibition: 2%

## NC(=O)[C@@H]1CCCN1C(=O)[C@H](CCc1ccccc1)NC(=O)[C@@H]1CCC(=O)N1 ([pGlu]-[hPhe]-Pro-NH2)
[4]
  Activity: 0.05 U/mg
